{"source": "patent US10272096B2", "about": "“Methods and systems of treating wounds” (priority 2013, dated 2019)", "key": {"[1]": {"system": "lung epithelial cells, primary human lung fibroblasts, cancer cell model", "assay": "In vitro wound healing in several different cell systems", "type": "cell-based", "excerpt": ". The inventors established this optimal dose range in order to provide a reasonable dose for actual treatment of airway injury. Mechanistically, the inventors determined that improved wound healing was from increased cell migration and not cell proliferation (division). […]"}, "Erk1/2": {"system": "Erk1/2", "assay": "Western blot analysis of phospho-Erk1/2 in U2OS cells", "type": "cell-based, human", "experimental": "Cells were lysed and harvested 10 min after LLLT treatment in Laemmli buffer heated to 100° C. (BioRad, Hercules, Calif.), and lysates were sonicated and resolved on SDS-PAGE gels. The proteins were transferred to a nitrocellulose membrane (GE Healthcare Life Sciences, Pittsburgh) and blocked for 1 h with Pierce Protein-Free Blocking buffer (Thermo Scientific, Rockford, Ill.). They were incubated overnight with antibodies for phospho-ERK1/2(Thr202/Tyr203) at 1:10,000 in TBS/5% BSA (Cell Signaling Technology). Membranes were then incubated with an anti-rabbit-HRP antibody at 1:2000 for 1 h and developed using a luminol-based chemiluminescent substrate."}, "U2OS cells": {"system": "U2OS cells", "type": "cell-based, human", "method": "U2OS human osteosarcoma cells were obtained from the American Type Tissue Culture Collection (ATCC, Rockville, Md.). Cells were grown in T-75 flasks (Corning, Fisher, Pittsburgh, Pa.) in a 37° C., 5% CO2/95% air incubator using Dulbecco's Modified Eagle's Medium (DMEM) and supplemented with 10% fetal bovine serum (Mediatach, Manassas, Va.). Cells were trypsinized with TrypLE (Invitrogen Life Technologies, Carsbad, Calif.), seeded into 6-well or 96-well plates (Corning, Fisher, Pittsburgh, Pa.) and grown to confluence.\nCells were exposed to LLLT for 30 min and 1 h later received a single treatment of 5 μM NO-Cbi.\nThe scratch wound closure assay has been previously described (see Spitler et al., Nitrosyl-cobinamide (NO-Cbi), a new nitric oxide donor, improves wound healing through cGMP/cGMP-dependent protein kinase, Cell Signal 2013, 25(12):2374-2382). Briefly 600-700 μm wide single line scratches were mechanically generated in a cell monolayer by a 200 μl plastic tip across the length of the well. Cells from both edges of the wound migrated into the open area, which was measured at 24 h. The change in area was quantified using a custom Mat Lab script. The wound closure rate was determined by plotting changes in the wound area as a function of time."}, "A-549 cells": {"system": "A-549 cells", "assay": "Mechanical scratch wound assay in A-549 cell monolayer", "type": "cell-based", "experimental": "(A) Mechanical scratch wounds were generated in a monolayer of A-549 cells, and 30 hours later, the area of the wound was evaluated by custom computer-based software. At 0, 4, 9, and 24 hour post wounding, cells received fresh medium with 5 uM of NO-Cbl, Deta-NONOate, sodium nitroprusside (SNP), or fresh medium alone. (B) The normalized average wound area was determined by dividing the final wound area by the initial wound area and averaging replicates. Data represent the mean+/−SEM of at least 3 separate experiments with an n=12 in each experiment."}}, "data": [{"substance": "nitrosyl-cobinamide [NO-Cbi]", "values": [{"measurement": "in vitro wound healing", "setting": "[1]", "value": "improved in vitro wound healing"}, {"measurement": "Erk1/2 activation (phosphorylation)", "setting": "Erk1/2", "value": "increased Erk1/2 activation"}, {"measurement": "Erk1/2 activation, combination with LLLT", "setting": "Erk1/2", "value": "same degree of Erk1/2 activation as NO-Cbi alone"}, {"measurement": "wound healing (normalized wound area at 24 h)", "setting": "U2OS cells", "value": "enhance wound healing"}, {"measurement": "wound healing, combination with LLLT", "setting": "U2OS cells", "value": "markedly enhanced wound healing compared to either treatment alone"}, {"measurement": "effectiveness on a molar basis compared with other NO donors", "setting": "A-549 cells", "value": "more effective than two other NO donors"}, {"measurement": "wound healing and migration (normalized wound area)", "setting": "A-549 cells", "value": "increases wound healing and migration"}]}]}
